In patent US12226410B2, “Methods for enhancing cellular clearance of pathological molecules via activation of the cellular protein ykt6” (NORTHWESTERN UNIVERSITY, priority 2019, dated 2025):

Legend:
ykt6 = assay: Measurement of farnesyl-ykt6 in SH-SY5Y cells; format: cell-based, human; details: SH-SY5Y cells expressing GFP-ykt6; 10 nM FTI, 48 hours
Description: FIGS. 14A, 14B, 14C, 14D, 14E, 14F, and 14G. The effects of FTI treatment on ykt6 and lysosomes. 14A) Farnesylation of ykt6 was measured in SH-SY5Y cells expressing GFP-ykt6. Cells treated with or without FTI (LNK-754) were cultured with farnesyl-azide to label farnesyl-modified proteins, immunoprecipitated with GFPaffinity beads, and then conjugated with phosphine-biotin. Biotin was detected with streptavidin-conjugated IRDye800, and normalized to total levels of GFP-ykt6. See methods for details. […] 14B) Membrane shift analysis of SH-SY5Y cells stably expressing GFP-ykt6-CS, treated with 5 nM FTI. Calnexin (CNX) and Coomassie blue (CBB) were used as a loading controls. 14C) Gel filtration/western blot analysis of FTI treated A53T iPSn. Ykt6 complex levels eluting at ca. 120A were quantified on the right (n=2). […] 14E) Raw quantification data of LAMP2A immunofluorescence intensity of individual cells from H4 cells treated with FTI, +/−ykt6 KD. Each data point represents LAMP2A intensity from individual cells, from 3 different culture wells. 14F) Analysis of ER-Golgi trafficking of GCase by endo H resistance after treatment with FTI in SH-SY5Y cells overexpressing wt a-syn (n=3). 14G) Western blot analysis of Triton X-100 soluble a-syn in SH-SY5Y wt a-syn cells after treatment with various concentrations of FTI for 5 days. For all quantifications, values are the mean+/−SEM, *p<0.05. […]

a-syn = assay: Sequential extraction/western blot of a-syn in FTI-treated A53T iPSn; format: cell-based, human; details: 5 nM, 7d
Description: FIGS. 6A, 6B, 6C, 6D, 6E, 6F, and 6G. FTIs enhance lysosomal GCase activity and reduce pathological a-syn by blocking ykt6 farnesylation. 6A) GCase activity in FTI-treated A53T iPSn at d80 (LNK-754 5 nM, 5d). 6B) GCase activity in FTI-treated A53T iPSn expressing empty vector (vect) or ykt6-CS (n=4). 6C) Lysosomal GCase activity was assessed in FTI-treated SHSY5Y cells transfected with scrambled or ykt6 shRNA (KD) (n=3). 6D) Quantification of Triton X-100 soluble (T-sol) a-syn by western blot from FTI-treated A53T iPSn (5 nM, 7d). *, non-specific band. (n=3). 6E) Quantification of insoluble a-syn from A53T iPSn as in D (n=3). 6F) Insoluble a-syn in FTI-treated H4 cells (5 nM, 5 days) transfected with either scrambled or ykt6 shRNA (n=6). 6G) Neuron viability was assessed in FTI-treated A53T iPSn (5 nM, 14d from d86-d100) by quantification of neurofilament protein. Right, neuron viability in FTI-treated A53T iPSn expressing empty vector or ykt6-CS (n=4). Values are the mean+/−SEM, *p<0.05, **p<0.01, ***p<0.001.
Sequential biochemical extraction for the analysis of pathological a-synuclein. […] Protein concentration was measured by BCA assay (Pierce). […]
Western blot analysis. […] The blots were washed as before and scanned/analyzed using an Odyssey infrared imaging system with Image Studio Software. […]

## C#Cc1cccc(-c2cc(=O)n(C)c3ccc([C@](O)(c4ccc(Cl)cc4)c4cncn4C)cc23)c1 [LNK-754]
ykt6
  reduction of the farnesyl-ykt6 signal: 40%
a-syn
  soluble and insoluble levels of a-syn (C20, syn303): reduced
